Data published in PMC9227305, “Photoinduced Synthesis of Methylated Marine Cyclopeptide Galaxamide Analogs with Isoindolinone as Anticancer Agents” (Marine Drugs, 2022).
*1 amine or outer side, *2 acyl side, *3 side chain or, on linkers, in order; H or OH if unused. Where a SMILES comes first, the peptide text is derived from it. [ ]: non-standard residue; d: D form. X1 = O=C1c2ccccc2[C@@](O)(CN(Cc2ccccc2)[*:1])N1CC(=O)[*:2]; NMeL = CN[C@@H](CC(C)C)C(=O)O

Columns and labels:
Type in all cases: cell-based, human
[1] = system: HepG-2 cells; experiment: Mitochondrial membrane potential, rhodamine 123 flow cytometry; details: control 44.9%
Procedure: A classical fluorescent dye, rhodamine 123, is selectively sequestered by active mitochondrial respiration, but is washed out in cells with decreased MMP, so that the dye fluorescence intensity reflects the level of mitochondrial activity and can be applied in the monitoring of MMP [23].
In this study, we have studied the change of MMP of HepG-2 cells after treatment with different concentrations (0, 5.5, 11 and 22 µM within 48 h) and different time periods (12, 24 and 48 h with 11 µM) of compound 8. Cells were stained with rhodamine 123 and analyzed by flow cytometry. […] The aforementioned analysis clearly discloses that the cyclic peptides can affect the mitochondrial membrane potential and induce apoptosis, consistent with the findings in cell cycle analysis.
Cells in the logarithmic phase were seeded in 6-well plates and incubated for 24 h. After refreshing the culture medium, different concentrations of compound 8 (0, 5.5, 11, 22 μM) were added and co-incubated for 48 h. Meanwhile, the cells were also treated with 11 μM of compound 8 within different time periods (12 h, 24 h, 48 h). Then, the cells were collected by trypsin digestion and washed with phosphate-buffered solution. After centrifuging (1000 r/min) for 5 min, the obtained cell precipitate was suspended in PBS (100 µL); then, 100 µL of rhodamine 123 (1 µM) was added and incubated for 20 min. The cells were centrifuged, resuspended in 600 µL PBS, and analyzed by flow cytometry (maximum excitation wavelength 507 and maximum emission wavelength 529 nm). At least 10,000 events were counted in the experiment.

[2] = system: HepG-2 cells; experiment: Intracellular Ca2+ level, Fluo-3 AM flow cytometry; details: 24 h treatment
Source text: It has been clear that subtle changes in Ca^2+ concentration, such as intracellular calcium overload, can regulate and trigger apoptosis by inducing the production of mitochondrial trifunctional protein [24]. In this paper, we tried to study the influence of our prepared cyclic peptide on the intracellular calcium ion concentration. The cell-permeable fluorescent dye, Fluo-3 AM, is the most commonly used indicator to detect intracellular calcium ion concentration. […] Based on this principle, intracellular calcium ion concentrations can be detected by flow cytometry. In this paper, HepG-2 cells treated with solvent and the desired concentration of compound 8 for 24 h were collected and co-incubated with Fluo-3 AM. After loading, intracellular Ca^2+ levels were measured by flow cytometry.
Cells incubated in 6-well plates were treated in a similar way as mentioned above, and then 100 µL of Fluo-3 AM (5 µM) was added and incubated for 1 h at 37 °C away from light. After rewashing the cells, the suspended precipitate in PBS was checked by flow cytometry (excitation at 488 nm and emission at 525 nm).

[3] = system: lactate dehydrogenase in HepG-2 cells; experiment: Lactate dehydrogenase (LDH) activity assay in cells; details: 48 h
Source text: The accumulation of lactate dehydrogenase can produce lactate metabolites and cause the deterioration of tumor cells. By inhibiting lactate dehydrogenase activity, the energy supply of tumor cells would be blocked, thus reducing their metastasis and progression. Therefore, in this paper, we also investigated the inhibitory activity of compound 8 on lactate dehydrogenase in HepG-2 cells. It has been known that LDH could catalyze lactic acid to generate pyruvate, which could react with 2,4-dinitrophenylhydrazine (DNPH) to form dinitrophenyl-pyruvate and form a reddish-brown product after reacting with an alkaline solution. The obtained product can be assessed by visible spectrophotometry. […]
Lactate dehydrogenase activity of HepG-2 cells treated with compound 8 was examined by using the Lactate Dehydrogenase Kit (Beijing Solarbio Science & Technology, Beijing, China) according to the instructions for use. […] Then the other reagents in the Lactate Dehydrogenase Kit (Beyotime Biotechnology, Shanghai, China) were added according to the instructions, and the absorption of the mixture was measured by the spectrophotometer. […] The absorption of the standard solution at 450 nm was measured to plot the standard curve. […]

[4] = system: MDM2; experiment: Western blot of MDM2 level; details: HepG-2 cells, 48 h, increasing drug concentration
Source text: (§1) The p53 tumor suppressor plays a key role in preventing tumor development. In cancers retaining wild-type p53, the function of p53 can be suppressed by a variety of factors, and the murine double minute 2 (MDM2) protein is an important endogenous cellular inhibitor of p53 [29]. Therefore, inhibiting or blocking MDM2 protein should be an efficient strategy for the development of an antitumor agent. Actually, various MDM2 inhibitors have been studied and screened in recent years, including small molecules and polypeptides. […] Considering that the isoindolinone fragment is always present in the structure of MDM2 inhibitors and plays an important role in binding to the target protein, we tried to detect the MDM2 and p53 protein levels by Western blotting to assess the inhibiting ability of cyclic peptides containing isoindolinone fragments to MDM2 oncoprotein.
(§2) HepG-2 cells (5 × 10^6 cells) in the medium were treated with different concentrations of compounds for the required time and were washed twice with ice-cold PBS. The cells were scraped into cell lysate buffer containing phenylmethanesulfonyl fluoride (PMSF) and transferred to a 1.5 mL centrifuge tube, then lysed for 20 min at 4 °C. After centrifuging (12,000 r/min) for 20 min, the supernatant was collected and measured using the BCA Protein Assay Kit (Beyotime Biotechnology Co. Ltd., Shanghai, China)). […]

[5] = system: p53; experiment: Western blot of p53 level; details: HepG-2 cells, 48 h, increasing drug concentration
Source text: as §1, §2

Question: For `CC(C)C[C@@H]1NC(=O)CN2C(=O)c3ccccc3[C@@]2(O)CN(Cc2ccccc2)C(=O)[C@H](CC(C)C)NC(=O)[C@H](CC(C)C)N(C)C(=O)[C@H](CC(C)C)NC(=O)[C@H](CC(C)C)NC1=O` [Compound 8, 3-Hydroxy-isoindolinone-cyclo-Gly-Leu-N-Me-Leu-Leu-Leu-Leu] (cyclo(LL[NMeL]L[X1]L)), which “mean mitochondrial fluorescence intensity (rhodamine 123)” value ([1]; 5.5 µM, 48 h) is on record?
Answer: The value was 27.1%.

Question: And the “mean mitochondrial fluorescence intensity (rhodamine 123)” value ([1]; 11 µM, 12 h)?
Answer: Its value is 29.4%.

Question: What about the “mean mitochondrial fluorescence intensity (rhodamine 123)” value ([1]; 11 µM, 24 h) of the same compound?
Answer: The value was 24.3%.

Question: And the “mean mitochondrial fluorescence intensity (rhodamine 123)” value ([1]; 11 µM, 48 h)?
Answer: Its value is 20.2%.

Question: And the “mean mitochondrial fluorescence intensity (rhodamine 123)” value ([1]; 22 µM, 48 h)?
Answer: The value was 14.3%.

Question: What about the “Fluo-3 fluorescence intensity (intracellular Ca2+) relative to control group” value [2] of the same compound?
Answer: Its value is 4.83 times.

Question: And the “effect on lactate dehydrogenase activity” value [3]?
Answer: Its value is “significant decrease”.

Question: And the “level of MDM2” value [4]?
Answer: Its value is “decreased gradually”.

Question: What about the p53 protein expression [5] of the same compound?
Answer: The p53 protein expression was “increase”.
